Experimental data: patent US11331327B2, “Antibacterial use of halogenated salicylanilides” (UNION therapeutics A/S, priority 2014, dated 2022)
≈ marks a conversion by molar mass, not a printed value.

Tested on: S. aureus clinical isolates and S. aureus ATCC 29213
Assay: MIC assay according to CLSI criteria, Example 2, S. aureus strains
Assay type: cell-based, Staphylococcus aureus
Details: Staphylococcus aureus
Method in brief: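 Wells received roughly 5×10^5 S. aureus cells taken in exponential growth, in cation-adjusted MH broth. Plates held aerobically at 37° C for 18 hours.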

CN[C@H](CC(C)C)C(=O)N[C@H]1C(=O)N[C@@H](CC(N)=O)C(=O)N[C@H]2C(=O)N[C@H]3C(=O)N[C@H](C(=O)N[C@H](C(=O)O)c4cc(O)cc(O)c4-c4cc3ccc4O)[C@H](O)c3ccc(c(Cl)c3)Oc3cc2cc(c3O[C@@H]2O[C@H](CO)[C@@H](O)[C@H](O)[C@H]2O[C@H]2C[C@](C)(N)[C@H](O)[C@H](C)O2)Oc2ccc(cc2Cl)[C@H]1O [Vancomycin]
MIC (ATCC29213, strain 9-1862936): 1 µg/mL (≈ 0.69 µM)
MIC (ATCC29213, strain 9-2625962): 1 µg/mL (≈ 0.69 µM)
MIC (ATCC29213, strain 9-2642158): 1 µg/mL (≈ 0.69 µM)
MIC (ATCC29213, strain 9-2955245): 1 µg/mL (≈ 0.69 µM)
MIC (ATCC29213, strain 9-26422166): 1 µg/mL (≈ 0.69 µM)
MIC (ATCC29213, strain 000040C): 1 µg/mL (≈ 0.69 µM)
MIC (ATCC29213, strain 000041C): 1 µg/mL (≈ 0.69 µM)
MIC (ATCC29213, strain 000274T): 1 µg/mL (≈ 0.69 µM)
MIC (ATCC29213, strain 114660U): 1 µg/mL (≈ 0.69 µM)
MIC (ATCC29213, strain 115015T): 2 µg/mL (≈ 1.38 µM)
MIC (ATCC29213, strain 115242C): 1 µg/mL (≈ 0.69 µM)
MIC (ATCC29213, strain 115263C): 2 µg/mL (≈ 1.38 µM)
MIC (ATCC29213, strain 115268C): 1 µg/mL (≈ 0.69 µM)
MIC (ATCC29213, strain 115273C): 1 µg/mL (≈ 0.69 µM)
MIC (ATCC29213, strain 115295C): 1 µg/mL (≈ 0.69 µM)
MIC (ATCC29213, strain 115303C): 1 µg/mL (≈ 0.69 µM)
MIC (ATCC29213, strain 115370U): 1 µg/mL (≈ 0.69 µM)
MIC (ATCC29213, strain 115427C): 1 µg/mL (≈ 0.69 µM)
MIC (ATCC29213, strain 115445C): 1 µg/mL (≈ 0.69 µM)
MIC (ATCC29213, strain 115561C): 1 µg/mL (≈ 0.69 µM)
MIC (ATCC29213, strain 115584D): 2 µg/mL (≈ 1.38 µM)
MIC (ATCC29213, strain 115628T): 2 µg/mL (≈ 1.38 µM)
MIC (ATCC29213, strain 115690C): 2 µg/mL (≈ 1.38 µM)
MIC (ATCC29213, strain 115691T): 1 µg/mL (≈ 0.69 µM)
MIC (ATCC29213, strain 115740E): 1 µg/mL (≈ 0.69 µM)
MIC (ATCC29213, strain 115810E): 1 µg/mL (≈ 0.69 µM)
MIC (ATCC29213, strain 115903T): 1 µg/mL (≈ 0.69 µM)
MIC (ATCC29213, strain 116122T): 1 µg/mL (≈ 0.69 µM)
MIC (ATCC29213, strain ATCC 29213): 1 µg/mL (≈ 0.69 µM)
MIC (ATCC29213, strain E5-1029252): 1 µg/mL (≈ 0.69 µM)
MIC (ATCC29213, strain E5-1029558): 1 µg/mL (≈ 0.69 µM)
MIC (ATCC29213, strain E5-1030440): 1 µg/mL (≈ 0.69 µM)
MIC (ATCC29213, strain E5-1030469): 2 µg/mL (≈ 1.38 µM)
MIC (ATCC29213, strain E5-1030472): 1 µg/mL (≈ 0.69 µM)
MIC (ATCC29213, strain E5-1030482): 1 µg/mL (≈ 0.69 µM)
MIC (ATCC29213, strain E5-1033076 (first line, r202)): 1 µg/mL (≈ 0.69 µM)
MIC (ATCC29213, strain E5-1033076 (second line, r203)): 1 µg/mL (≈ 0.69 µM)
MIC (ATCC29213, strain E5-1033088): 1 µg/mL (≈ 0.69 µM)
MIC (ATCC29213, strain E5-1033091): 1 µg/mL (≈ 0.69 µM)
MIC (ATCC29213, strain E5-1035277): 1 µg/mL (≈ 0.69 µM)
MIC (ATCC29213, strain E5-1035284): 1 µg/mL (≈ 0.69 µM)
MIC (ATCC29213, strain E5-1035775): 1 µg/mL (≈ 0.69 µM)
MIC (ATCC29213, strain E5-1035779): 1 µg/mL (≈ 0.69 µM)
MIC (ATCC29213, strain E5-1037958): 1 µg/mL (≈ 0.69 µM)
MIC (ATCC29213, strain E5-1037971): 1 µg/mL (≈ 0.69 µM)
MIC (ATCC29213, strain E5-1038279): 1 µg/mL (≈ 0.69 µM)
MIC (ATCC29213, strain E5-1038286): 1 µg/mL (≈ 0.69 µM)
MIC (ATCC29213, strain E5-1038294): 1 µg/mL (≈ 0.69 µM)
MIC (ATCC29213, strain E5-1039684): 1 µg/mL (≈ 0.69 µM)
MIC (ATCC29213, strain E5-1039697): 1 µg/mL (≈ 0.69 µM)
MIC (ATCC29213, strain E5-1041977): 2 µg/mL (≈ 1.38 µM)
MIC (ATCC29213, strain E5-1041979): 1 µg/mL (≈ 0.69 µM)
MIC (ATCC29213, strain E5-1041980): 1 µg/mL (≈ 0.69 µM)
MIC (ATCC29213, strain E5-1041987): 1 µg/mL (≈ 0.69 µM)
MIC (ATCC29213, strain E5-1043184): 1 µg/mL (≈ 0.69 µM)
MIC (ATCC29213, strain E5-1043668): 1 µg/mL (≈ 0.69 µM)
MIC (ATCC29213, strain E5-1045179): 1 µg/mL (≈ 0.69 µM)
MIC (ATCC29213, strain E5-1046019): 1 µg/mL (≈ 0.69 µM)
MIC (ATCC29213, strain E5-1046020): 1 µg/mL (≈ 0.69 µM)
MIC (ATCC29213, strain E5-1046039): 1 µg/mL (≈ 0.69 µM)
MIC (ATCC29213, strain E5-1046070): 1 µg/mL (≈ 0.69 µM)
MIC (ATCC29213, strain E5-1046074): 1 µg/mL (≈ 0.69 µM)
MIC (ATCC29213, strain E5-1046085): 2 µg/mL (≈ 1.38 µM)
MIC (ATCC29213, strain E5-1046096): 1 µg/mL (≈ 0.69 µM)
MIC (ATCC29213, strain E5-1046296): 1 µg/mL (≈ 0.69 µM)
MIC (ATCC29213, strain E5-1046297): 1 µg/mL (≈ 0.69 µM)
MIC (ATCC29213, strain E5-1046298): 1 µg/mL (≈ 0.69 µM)
MIC (ATCC29213, strain E5-1046723): 2 µg/mL (≈ 1.38 µM)
MIC (ATCC29213, strain E5-1047585): 1 µg/mL (≈ 0.69 µM)
MIC (ATCC29213, strain E5-1047606): 1 µg/mL (≈ 0.69 µM)
MIC (ATCC29213, strain E5-1047924): 1 µg/mL (≈ 0.69 µM)
MIC (ATCC29213, strain E5-1048204): 2 µg/mL (≈ 1.38 µM)
MIC (ATCC29213, strain E5-1048428): 1 µg/mL (≈ 0.69 µM)
MIC (ATCC29213, strain E5-1048654): 1 µg/mL (≈ 0.69 µM)
MIC (ATCC29213, strain E5-1048670): 2 µg/mL (≈ 1.38 µM)
MIC (ATCC29213, strain EEFIC 01): 1 µg/mL (≈ 0.69 µM)
MIC (ATCC29213, strain EEFIC 02): 1 µg/mL (≈ 0.69 µM)
MIC (ATCC29213, strain K000772): 1 µg/mL (≈ 0.69 µM)
MIC (ATCC29213, strain K000796): 1 µg/mL (≈ 0.69 µM)
MIC (ATCC29213, strain K000863): 1 µg/mL (≈ 0.69 µM)
MIC (ATCC29213, strain K000864): 1 µg/mL (≈ 0.69 µM)
MIC (ATCC29213, strain K000866): 1 µg/mL (≈ 0.69 µM)
MIC (ATCC29213, strain K115498): 2 µg/mL (≈ 1.38 µM)
MIC (ATCC29213, strain K115688): 2 µg/mL (≈ 1.38 µM)
MIC (ATCC29213, strain K115689): 2 µg/mL (≈ 1.38 µM)
MIC (ATCC29213, strain R000019): 2 µg/mL (≈ 1.38 µM)
MIC (ATCC29213, strain R000020): 1 µg/mL (≈ 0.69 µM)
MIC (ATCC29213, strain R000024): 1 µg/mL (≈ 0.69 µM)
MIC (ATCC29213, strain U115579): 1 µg/mL (≈ 0.69 µM)
MIC (ATCC 29213 / MRSA, strain MRSA 01): 1 µg/mL (≈ 0.69 µM)
MIC (ATCC 29213 / MRSA, strain MRSA 02): 2 µg/mL (≈ 1.38 µM)
MIC (ATCC 29213 / MRSA, strain MRSA 03): 1 µg/mL (≈ 0.69 µM)
MIC (ATCC 29213 / MRSA, strain MRSA 04): 2 µg/mL (≈ 1.38 µM)
MIC (ATCC 29213 / MRSA, strain MRSA 05): 1 µg/mL (≈ 0.69 µM)
MIC (ATCC 29213 / MRSA, strain MRSA 06): 2 µg/mL (≈ 1.38 µM)
MIC (ATCC 29213 / MRSA, strain MRSA 07): 1 µg/mL (≈ 0.69 µM)
MIC (ATCC 29213 / MRSA, strain MRSA 08): 1 µg/mL (≈ 0.69 µM)
MIC (ATCC 29213 / MRSA, strain MRSA 09): 2 µg/mL (≈ 1.38 µM)
MIC (ATCC 29213 / MRSA, strain MRSA 10): 1 µg/mL (≈ 0.69 µM)
MIC (ATCC 29213 / MRSA, strain MRSA 11): 1 µg/mL (≈ 0.69 µM)
MIC (ATCC 29213 / MRSA, strain MRSA 13): 1 µg/mL (≈ 0.69 µM)
MIC (ATCC 29213 / MRSA, strain MRSA 14): 1 µg/mL (≈ 0.69 µM)
